# Source: US20130211249A1, “DRUG ELUTING HYDROGELS FOR CATHETER DELIVERY” (The Johns Hopkins University, priority 2010, published 2013)
# Assays:
# [1] = doxorubicin release from glucomannan alginate blends (dialysis, absorbance at 485 nm); assay type: physicochemical; settings: from sulfonated glucomannan calcium alginate blend; Hepes Buffered Saline with 30% FBS, 37° C., pH 7.4; n=10
# Protocol: For examination of doxorubicin release from glucomannan alginate blends, sulfated glucomannan as described above was added 1:1 with PRONOVA UP MVM alginate from FMC Biopolymers (Haugesund, Norway), and at a concentration of 2% w/v to a standard nonionic contrast agent (Iohexyl, Omnipaque 300, Amersham Health, Princeton, N.J.). To this 6 mg doxorubicin was added and the mixture was polymerized in 100 mM calcium chloride. Dox loaded hydrogels were then placed into dialysis tubing (molecular weight cut-off of 10,000 DA) sealed at both ends with clips. Dialysis tubing was then placed into a beaker containing 1000-fold excess Hepes Buffered Saline with 30% FBS and incubated at 37° C. and pH 7.4. A doxorubicin standard curve ranging from 0 to 6 mg/mL drug was prepared in saline. From these standard curves the percentage of total drug release was calculated. Doxorubicin release was monitored by measuring the time dependence of the absorbance at 485 nm.
# [2] = dissolution of self-gelling alginate gel by alginate lyase; assay type: biochemical; settings: 0.5 mL of alginate lyase added to 5 mL gel (1.5% calcium alginate, 1% sodium alginate) after 1 hour gelling
# Excerpt: In embodiments, a self-gelling alginate can be modified to contain an optical agent to assess localization. For example, the FDA approved optical agent inodcyanine green has used at a concentration of 0.005% to assess localization after injection with infrared. Gels can be made by mixing a solution of sodium alginate (Protanal SF 120) and a calcium alginate dispersion (Protaweld TX 120). The amount of calcium alginate can be 1.5%, and the amount of sodium alginate can be 1%. The solution and dispersion are mixed and 5 mL of the gel injected into a 50 mL conical tube. The sample was left to gel for 1 hour.
Molecule,doxorubicin release profile [1],dissolution of hardened alginate gel [2]
COc1cccc2c1C(=O)c1c(O)c3c(c(O)c1C2=O)C[C@@](O)(C(=O)CO)C[C@@H]3O[C@H]1C[C@H](N)[C@H](O)[C@H](C)O1 [doxorubicin],eight,
"alginate lyase: enzymes that catalyze the degradation of alginate (protein, listed as Pseudomonas aeruginosa) MKTSHLIRIALPGALAAALLASQVSQAADLVPPPGYYAAVGERKGSAGSCPAVPPPYTGSLVFTSKYEGSDSARATLNVKAEKTFRSQIKDITDMERGATKLVTQYMRSGRDGDLACALNWMSAWARAGALQSDDFNHTGKSMRKWALGSLSGAYMRLKFSSSRPLAAHAEQSREIEDWFARLGTQVVRDWSGLPLKKINNHSYWAAWSVMSTAVVTNRRDLFDWAVSEFKVAANQVDEQGFLPNELKRRQRALAYHNYALPPLAMIAPFAQVNGVDLRQENHGALQRLAERVMKGVDDEETFEEKTGEDQDMTDLKVDNKYAWLEPYCALYRCEPNACSRPKKDREPFNSFRLGGEVTRVFSREGGS",,complete dissolution
